Tests used:
D(3) dopamine receptor = D(3) dopamine receptor (Homo sapiens, UniProt P35462); test: DRUGMATRIX: Dopamine D3 radioligand binding (ligand: [3H] Spiperone); format: cell membranes, CHO, Membrane; conditions: cho
[1] = biological target: T1, Neuropeptide Y receptor type 2 (Homo sapiens, UniProt P49146); format: cell membranes, Membrane; conditions: kan-ts; further: in other assays of this panel Not Active means under 50% inhibition at 10 µM
T1 sequence (P49146 whole entry): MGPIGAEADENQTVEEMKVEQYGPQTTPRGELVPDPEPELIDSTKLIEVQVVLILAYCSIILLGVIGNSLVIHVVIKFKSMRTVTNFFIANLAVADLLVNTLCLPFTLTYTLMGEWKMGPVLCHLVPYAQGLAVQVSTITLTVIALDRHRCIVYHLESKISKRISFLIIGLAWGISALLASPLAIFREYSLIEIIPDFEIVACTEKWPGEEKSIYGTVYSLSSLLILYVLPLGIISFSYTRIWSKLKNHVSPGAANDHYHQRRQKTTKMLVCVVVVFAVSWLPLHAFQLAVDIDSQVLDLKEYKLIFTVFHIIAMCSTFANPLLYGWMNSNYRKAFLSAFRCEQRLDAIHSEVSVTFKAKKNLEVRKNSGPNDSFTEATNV

[2] = biological target: Vascular endothelial growth factor receptor 1 (Homo sapiens, UniProt P17948); format: cell-based; conditions: huvec; further: in other assays of this panel Not Active means under 50% inhibition at 10 µM
[3] = DRUGMATRIX: GABAA, Chloride Channel, TBOB radioligand binding (ligand: [3H] TBOB); format: cell membranes, Rattus norvegicus, Wistar, Cerebral cortex, Membrane; conditions: Not Active = under 50% inhibition at 10 µM
Melanocortin receptor 5 = Melanocortin receptor 5 (Homo sapiens, UniProt P33032); format: cell membranes, HEK293, Membrane; conditions: hek293; further: in other assays of this panel Not Active means under 50% inhibition at 10 µM
[4] = biological target: Delta-type opioid receptor (Homo sapiens, UniProt P41143); format: cell membranes, HEK293, Membrane; conditions: hek293; further: in other assays of this panel Not Active means under 50% inhibition at 10 µM
Cytochrome P450 2A6 = biological target: T2, Cytochrome P450 2A6 (Homo sapiens, UniProt P11509); conditions: bti-tn-5b1-4; further: in other assays of this panel Not Active means under 50% inhibition at 10 µM
T2 sequence (P11509 whole entry): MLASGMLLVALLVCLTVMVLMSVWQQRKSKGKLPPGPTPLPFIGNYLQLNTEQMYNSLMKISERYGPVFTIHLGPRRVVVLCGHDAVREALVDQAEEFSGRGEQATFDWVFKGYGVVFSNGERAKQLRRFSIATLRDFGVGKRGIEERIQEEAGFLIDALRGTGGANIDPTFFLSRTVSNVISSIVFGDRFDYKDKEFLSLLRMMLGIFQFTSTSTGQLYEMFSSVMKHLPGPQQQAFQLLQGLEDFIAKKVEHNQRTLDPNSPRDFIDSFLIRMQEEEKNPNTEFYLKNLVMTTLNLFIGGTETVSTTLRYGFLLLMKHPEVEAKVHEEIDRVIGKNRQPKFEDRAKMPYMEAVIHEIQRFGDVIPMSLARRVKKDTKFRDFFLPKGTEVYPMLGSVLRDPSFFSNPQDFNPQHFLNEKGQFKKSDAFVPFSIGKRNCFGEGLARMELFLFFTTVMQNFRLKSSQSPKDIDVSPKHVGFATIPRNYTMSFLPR

[5] = DRUGMATRIX: Interleukin IL-1 radioligand binding (ligand: [125I] interleukin 1beta); format: cell membranes, Membrane; conditions: nih3t3; Not Active = under 50% inhibition at 10 µM
[6] = biological target: T3, 3-hydroxy-3-methylglutaryl-coenzyme A reductase (Homo sapiens, UniProt P04035); design: species or system Escherichia coli
T3 sequence (P04035 whole entry): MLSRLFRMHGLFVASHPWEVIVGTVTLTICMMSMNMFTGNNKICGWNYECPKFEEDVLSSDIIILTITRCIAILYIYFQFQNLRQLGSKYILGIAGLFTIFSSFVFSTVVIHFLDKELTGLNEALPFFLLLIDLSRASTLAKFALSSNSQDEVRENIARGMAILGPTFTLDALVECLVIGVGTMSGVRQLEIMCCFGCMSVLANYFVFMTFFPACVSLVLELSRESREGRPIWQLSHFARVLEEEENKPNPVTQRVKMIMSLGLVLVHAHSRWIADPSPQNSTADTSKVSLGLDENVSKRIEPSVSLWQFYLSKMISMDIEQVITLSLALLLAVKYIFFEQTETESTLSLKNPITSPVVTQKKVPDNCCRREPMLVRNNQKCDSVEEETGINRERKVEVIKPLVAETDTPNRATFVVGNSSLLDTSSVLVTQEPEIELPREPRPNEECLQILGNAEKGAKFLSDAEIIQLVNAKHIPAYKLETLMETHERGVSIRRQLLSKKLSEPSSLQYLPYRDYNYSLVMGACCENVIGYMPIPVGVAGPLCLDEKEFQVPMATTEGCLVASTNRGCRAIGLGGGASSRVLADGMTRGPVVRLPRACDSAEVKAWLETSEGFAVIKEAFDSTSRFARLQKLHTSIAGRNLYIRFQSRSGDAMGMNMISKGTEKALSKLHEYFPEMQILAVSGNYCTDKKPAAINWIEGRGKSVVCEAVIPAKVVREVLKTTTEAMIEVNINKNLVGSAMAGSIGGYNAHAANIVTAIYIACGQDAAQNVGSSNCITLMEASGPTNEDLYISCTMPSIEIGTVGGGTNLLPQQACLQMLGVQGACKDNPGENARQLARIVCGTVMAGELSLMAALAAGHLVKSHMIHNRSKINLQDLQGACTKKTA

Adenosine receptor A2a = Adenosine receptor A2a (Homo sapiens, UniProt P29274); test: DRUGMATRIX: Adenosine A2A radioligand binding (ligand: […]); format: cell membranes, HEK293, Membrane; conditions: hek293; Not Active = under 50% inhibition at 10 µM
[7] = biological target: T4, 5-hydroxytryptamine receptor 2C (Homo sapiens, UniProt P28335); test: DRUGMATRIX: Serotonin (5-Hydroxytryptamine) 5-HT2C radioligand binding (ligand: [3H] Mesulergine); format: cell membranes, CHO-K1, Membrane; conditions: cho-k1; Not Active = under 50% inhibition at 10 µM
T4 sequence (P28335 whole entry): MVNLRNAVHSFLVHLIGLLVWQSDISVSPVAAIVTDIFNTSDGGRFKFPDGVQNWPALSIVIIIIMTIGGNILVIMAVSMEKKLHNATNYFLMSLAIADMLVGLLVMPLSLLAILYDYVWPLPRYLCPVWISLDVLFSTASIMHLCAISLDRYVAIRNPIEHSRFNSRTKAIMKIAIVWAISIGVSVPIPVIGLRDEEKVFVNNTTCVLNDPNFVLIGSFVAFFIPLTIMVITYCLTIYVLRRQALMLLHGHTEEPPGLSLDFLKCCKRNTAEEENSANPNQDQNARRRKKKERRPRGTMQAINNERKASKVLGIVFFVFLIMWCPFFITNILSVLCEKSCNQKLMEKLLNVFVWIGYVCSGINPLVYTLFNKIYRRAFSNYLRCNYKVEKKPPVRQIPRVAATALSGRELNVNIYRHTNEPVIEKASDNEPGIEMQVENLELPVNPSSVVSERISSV

Acetylcholinesterase = Acetylcholinesterase (Homo sapiens, UniProt P22303); test: DRUGMATRIX: Acetylcholinesterase enzyme inhibition (substrate: acetylthiocholine); format: cell-based, HEK293; conditions: hek293; Not Active = under 50% inhibition at 10 µM
Acetylcholinesterase, sequence (P22303 whole entry): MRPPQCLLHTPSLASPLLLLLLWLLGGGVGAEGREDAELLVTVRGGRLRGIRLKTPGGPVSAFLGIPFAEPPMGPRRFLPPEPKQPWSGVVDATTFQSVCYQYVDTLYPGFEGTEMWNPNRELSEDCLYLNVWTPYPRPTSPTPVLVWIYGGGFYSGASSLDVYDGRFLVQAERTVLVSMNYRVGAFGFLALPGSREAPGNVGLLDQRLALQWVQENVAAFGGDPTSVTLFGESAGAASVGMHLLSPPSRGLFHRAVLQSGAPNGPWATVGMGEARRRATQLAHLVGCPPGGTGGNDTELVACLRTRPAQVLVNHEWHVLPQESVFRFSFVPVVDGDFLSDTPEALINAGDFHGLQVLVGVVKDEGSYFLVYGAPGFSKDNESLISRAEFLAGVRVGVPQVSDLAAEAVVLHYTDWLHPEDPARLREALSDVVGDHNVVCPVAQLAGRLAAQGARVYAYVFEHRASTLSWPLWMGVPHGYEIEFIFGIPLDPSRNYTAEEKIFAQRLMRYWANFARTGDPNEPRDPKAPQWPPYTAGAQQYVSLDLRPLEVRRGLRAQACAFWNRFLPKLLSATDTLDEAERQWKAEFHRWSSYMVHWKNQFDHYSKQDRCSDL

D(3) dopamine receptor, sequence (P35462 whole entry): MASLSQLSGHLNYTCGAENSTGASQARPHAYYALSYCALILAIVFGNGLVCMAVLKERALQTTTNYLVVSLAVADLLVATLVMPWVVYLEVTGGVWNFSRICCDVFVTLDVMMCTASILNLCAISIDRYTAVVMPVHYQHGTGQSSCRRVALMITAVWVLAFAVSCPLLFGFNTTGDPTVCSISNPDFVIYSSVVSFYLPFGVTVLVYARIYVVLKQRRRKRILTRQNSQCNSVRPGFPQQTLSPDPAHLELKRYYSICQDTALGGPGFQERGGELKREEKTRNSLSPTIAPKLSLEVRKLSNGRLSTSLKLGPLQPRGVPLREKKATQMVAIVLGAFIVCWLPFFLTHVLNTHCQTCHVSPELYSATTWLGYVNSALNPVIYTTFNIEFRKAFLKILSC
Vascular endothelial growth factor receptor 1, sequence (P17948 whole entry): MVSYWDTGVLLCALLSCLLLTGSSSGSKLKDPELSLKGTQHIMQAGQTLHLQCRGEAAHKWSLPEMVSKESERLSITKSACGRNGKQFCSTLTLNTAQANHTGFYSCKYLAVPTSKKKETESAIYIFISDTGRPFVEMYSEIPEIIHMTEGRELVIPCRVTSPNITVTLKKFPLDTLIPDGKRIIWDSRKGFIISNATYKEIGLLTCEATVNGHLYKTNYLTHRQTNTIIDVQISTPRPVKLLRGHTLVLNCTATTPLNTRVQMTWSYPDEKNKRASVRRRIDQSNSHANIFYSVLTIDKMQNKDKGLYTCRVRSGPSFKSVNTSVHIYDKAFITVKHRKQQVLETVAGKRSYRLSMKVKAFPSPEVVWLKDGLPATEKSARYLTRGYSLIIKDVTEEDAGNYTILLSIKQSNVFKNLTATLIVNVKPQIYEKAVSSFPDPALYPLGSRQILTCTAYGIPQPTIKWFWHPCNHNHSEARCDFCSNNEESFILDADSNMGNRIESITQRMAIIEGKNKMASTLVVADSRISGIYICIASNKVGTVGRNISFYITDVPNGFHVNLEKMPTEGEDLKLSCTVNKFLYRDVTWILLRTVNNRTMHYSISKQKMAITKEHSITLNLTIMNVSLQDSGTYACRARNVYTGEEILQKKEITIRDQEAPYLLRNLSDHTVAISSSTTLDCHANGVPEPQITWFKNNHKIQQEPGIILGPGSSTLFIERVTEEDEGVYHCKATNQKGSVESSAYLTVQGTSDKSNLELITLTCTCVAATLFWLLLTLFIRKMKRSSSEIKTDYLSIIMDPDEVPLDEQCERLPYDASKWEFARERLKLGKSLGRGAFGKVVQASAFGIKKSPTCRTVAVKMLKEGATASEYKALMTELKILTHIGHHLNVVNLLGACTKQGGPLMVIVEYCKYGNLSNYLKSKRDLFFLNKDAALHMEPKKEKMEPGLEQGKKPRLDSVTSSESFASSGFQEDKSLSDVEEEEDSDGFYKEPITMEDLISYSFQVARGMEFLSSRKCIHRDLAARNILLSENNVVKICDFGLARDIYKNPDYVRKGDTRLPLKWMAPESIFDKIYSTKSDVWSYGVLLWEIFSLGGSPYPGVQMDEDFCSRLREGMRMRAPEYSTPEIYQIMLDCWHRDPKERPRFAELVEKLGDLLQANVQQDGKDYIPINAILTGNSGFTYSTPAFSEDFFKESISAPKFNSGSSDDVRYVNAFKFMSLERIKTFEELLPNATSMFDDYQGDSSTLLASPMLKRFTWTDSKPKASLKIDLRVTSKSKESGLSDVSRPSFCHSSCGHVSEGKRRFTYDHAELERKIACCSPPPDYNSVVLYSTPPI
Delta-type opioid receptor, sequence (P41143 whole entry): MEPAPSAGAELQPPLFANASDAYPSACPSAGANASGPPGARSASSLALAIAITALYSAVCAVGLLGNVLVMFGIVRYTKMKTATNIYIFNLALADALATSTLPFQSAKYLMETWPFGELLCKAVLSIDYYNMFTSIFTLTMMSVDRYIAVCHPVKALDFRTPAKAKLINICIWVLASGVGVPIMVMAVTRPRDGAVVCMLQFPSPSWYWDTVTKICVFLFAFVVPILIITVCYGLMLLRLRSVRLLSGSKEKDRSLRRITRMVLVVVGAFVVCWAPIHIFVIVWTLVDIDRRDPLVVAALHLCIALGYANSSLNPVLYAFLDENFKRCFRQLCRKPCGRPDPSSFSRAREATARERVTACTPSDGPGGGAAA
Adenosine receptor A2a, sequence (P29274 whole entry): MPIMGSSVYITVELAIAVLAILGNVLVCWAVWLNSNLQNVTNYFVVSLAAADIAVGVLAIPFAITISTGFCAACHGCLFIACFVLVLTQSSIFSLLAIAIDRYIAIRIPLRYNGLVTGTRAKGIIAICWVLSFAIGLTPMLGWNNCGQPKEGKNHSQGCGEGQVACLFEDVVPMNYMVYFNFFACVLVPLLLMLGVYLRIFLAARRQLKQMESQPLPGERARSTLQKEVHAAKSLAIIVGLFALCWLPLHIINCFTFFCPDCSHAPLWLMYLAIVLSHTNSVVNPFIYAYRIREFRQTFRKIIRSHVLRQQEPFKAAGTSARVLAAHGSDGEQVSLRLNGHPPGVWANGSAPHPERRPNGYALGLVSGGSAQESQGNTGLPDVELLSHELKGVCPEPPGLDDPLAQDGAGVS
Melanocortin receptor 5, sequence (P33032 whole entry): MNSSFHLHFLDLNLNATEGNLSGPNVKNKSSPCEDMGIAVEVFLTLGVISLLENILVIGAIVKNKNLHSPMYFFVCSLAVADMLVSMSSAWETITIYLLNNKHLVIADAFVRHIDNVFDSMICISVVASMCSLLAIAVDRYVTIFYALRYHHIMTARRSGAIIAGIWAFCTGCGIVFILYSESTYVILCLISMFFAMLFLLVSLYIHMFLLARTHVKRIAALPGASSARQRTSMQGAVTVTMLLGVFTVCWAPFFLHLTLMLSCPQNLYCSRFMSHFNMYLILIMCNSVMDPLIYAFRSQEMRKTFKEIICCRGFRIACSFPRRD

Oc1c(I)cc(I)c2cccnc12 [IODOQUINOL]
Not Active: IC50 (D(3) dopamine receptor) | IC50 [1] | IC50 [2] | IC50 [3] | Ki [3] | IC50 (Melanocortin receptor 5) | IC50 [4] | IC50 (Cytochrome P450 2A6) | Ki (Cytochrome P450 2A6) | IC50 [5] | Ki [5] | IC50 [6] | IC50 (Adenosine receptor A2a) | IC50 [7] | IC50 (Acetylcholinesterase)

NNC(=O)c1ccncc1 [ISONIAZID]
Not Active: IC50 (D(3) dopamine receptor) | IC50 [1] | IC50 [2] | IC50 [3] | Ki [3] | IC50 (Melanocortin receptor 5) | IC50 [4] | IC50 (Cytochrome P450 2A6) | Ki (Cytochrome P450 2A6) | IC50 [5] | Ki [5] | IC50 [6] | IC50 (Adenosine receptor A2a) | IC50 [7] | IC50 (Acetylcholinesterase)

From ChEMBL document CHEMBL1909046, “DrugMatrix in vitro pharmacology data”
